IC50 data for eleven compounds are collected here from US11091478B2 (Fochon Pharmaceuticals, Ltd., priority 2017, dated 2021).

Read-outs that look alike come from different tables or passages of the source.

The test system of one assay is DOHH2 cells. Kind of assay: Cell proliferation assay (MTS), DOHH2 cells, 120 h. The class given is cell-based. The method in brief: (§1)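 Cells in RPMI-1640 with 10% FBS were seeded at 5000/well, left overnight at 37° C., 5% CO2, then exposed to compound at 10000 down to 1.5 nM (nine concentrations) for 72 h (RS4;11) or 120 h (DOHH2). Viability was read by MTS, 2 h, absorbance at 490/650 nm; IC50 calculated.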

A further assay deals with RS4;11 cells. Kind of assay: Cell proliferation assay (MTS), RS4;11 cells, 72 h. Type of assay: cell-based. In a few lines:
as §1

Regarding `CN1CCN(C[C@H]2CNc3cc(S(=O)(=O)NC(=O)c4ccc(N5CCN(CC6=C(c7ccc(Cl)cc7)CC(C)(C)CC6)CC5)cc4Oc4cnc5[nH]ccc5c4)cc([N+](=O)[O-])c3N2)CC1` [Example 4-3, (R)-2-((1H-pyrrolo[2,3-b]pyridin-5-yl)oxy)-4-(4-((4′-chloro-5,5-dimethyl-3,4,5,6-tetra-hydro-[1,1′-biphenyl]-2-yl)methyl)piperazin-1-yl)-N-((2-((4-methylpiperazin-1-yl)methyl)-8-nitro-1,2,3,4-tetrahydroquinoxalin-6-yl)sulfonyl)benzamide], the concentration for half-maximal inhibition (IC50) in the assay with DOHH2 cells (Homo sapiens, DOHH-2, 120 h) turned out to be 0.038 µM; in the assay on RS4;11 cells (Homo sapiens, RS4-11, 72 h), 0.046 µM.
With `COC1CCC([C@H]2COc3cc(S(=O)(=O)NC(=O)c4ccc(N5CCN(CC6=C(c7ccc(Cl)cc7)CC(C)(C)CC6)CC5)cc4Oc4cnc5[nH]ccc5c4)cc([N+](=O)[O-])c3N2)CC1` (stereo partly drawn) [Example 2-247B, (S)-2-((1H-pyrrolo[2,3-b]pyridin-5-yl)oxy)-4-(4-((4′-chloro-5,5-dimethyl-3,4,5,6-tetra-hydro-[1,1′-biphenyl]-2-yl)methyl)piperazin-1-yl)-N-((3-(4-methoxycyclohexyl)-5-nitro-3,4-dihydro-2H-benzo[b][1,4]oxazin-7-yl)sulfonyl)benzamide], the IC50 with DOHH2 cells amounted to 0.036 µM; in the assay with RS4;11 cells, 0.045 µM.
On to `CC1(C)CCC(CN2CCN(c3ccc(C(=O)NS(=O)(=O)c4cc5c(c([N+](=O)[O-])c4)N[C@H](CN4CCS(=O)(=O)CC4)CO5)c(Oc4cnc5[nH]ccc5c4)c3)CC2)=C(c2ccc(Cl)cc2)C1` [Example 2-149, (R)-2-((1H-pyrrolo[2,3-b]pyridin-5-yl)oxy)-4-(4-((4′-chloro-5,5-dimethyl-3,4,5,6-tetra-hydro-[1,1′-biphenyl]-2-yl)methyl)piperazin-1-yl)-N-((3-((1,1-dioxidothiomorpholino)methyl)-5-nitro-3,4-dihydro-2H-benzo[b] [1,4]oxazin-7-yl)sulfonyl)benzamide], for which the 50% inhibitory concentration (IC50) with DOHH2 cells (Homo sapiens, DOHH-2, 120 h) stood at 0.247 µM; in the assay with RS4;11 cells (Homo sapiens, RS4-11, 72 h), 0.05 µM.
For the compound `CC1(C)CCC(CN2CCN(c3ccc(C(=O)NS(=O)(=O)c4cc5c(c([N+](=O)[O-])c4)N[C@@H](CNS(C)(=O)=O)CO5)c(Oc4cnc5[nH]ccc5c4)c3)CC2)=C(c2ccc(Cl)cc2)C1` [Example 2-66, (S)-2-((1H-pyrrolo[2,3-b]pyridin-5-yl)oxy)-4-(4-((4′-chloro-5,5-dimethyl-3,4,5,6-tetra-hydro-[1,1′-biphenyl]-2-yl)methyl)piperazin-1-yl)-N-((3-(methylsulfonamidomethyl)-5-nitro-3,4-dihydro-2H-benzo[b][1,4]oxazin-7-yl)sulfonyl)benzamide], the 50% inhibitory concentration (IC50) with DOHH2 cells (Homo sapiens, DOHH-2, 120 h) turned out to be 0.013 µM; with RS4;11 cells (Homo sapiens, RS4-11, 72 h) it was 0.018 µM.
In the case of `CC1(C)CCC(CN2CCN(c3ccc(C(=O)NS(=O)(=O)c4cc5c(c([N+](=O)[O-])c4)NC(CC4CCOCC4)CO5)c(Oc4cnc5[nH]ccc5c4)c3)CC2)=C(c2ccc(Cl)cc2)C1` (stereo not shown) [Example 2-180, 2-((1H-pyrrolo[2,3-b]pyridin-5-yl)oxy)-4-(4-((4′-chloro-5,5-dimethyl-3,4,5,6-tetrahydro-[1,1′-biphenyl]-2-yl)methyl)piperazin-1-yl)-N-((5-nitro-3-((tetrahydro-2H-pyran-4-yl)methyl)-3,4-dihydro-2H-benzo[b][1,4]oxazin-7-yl)sulfonyl)benzamide], the 50% inhibitory concentration (IC50) in the assay on DOHH2 cells (Homo sapiens, DOHH-2, 120 h) amounted to 0.015 µM; in the assay on RS4;11 cells (Homo sapiens, RS4-11, 72 h) it was 0.008 µM.
The corresponding values for `COC(=O)N1CCC(C[C@@H]2COc3cc(S(=O)(=O)NC(=O)c4ccc(N5CCN(CC6=C(c7ccc(Cl)cc7)CC(C)(C)CC6)CC5)cc4Oc4cnc5[nH]ccc5c4)cc([N+](=O)[O-])c3N2)CC1` [Example 2-202, methyl (R)-4-((7-(N-(2-((1H-pyrrolo[2,3-b]pyridin-5-yl)oxy)-4-(4-((4′-chloro-5,5-dimethyl-3,4,5,6-tetrahydro-[1,1′-biphenyl]-2-yl)methyl)piperazin-1-yl)benzoyl)sulfamoyl)-5-nitro-3,4-dihydro-2H-benzo[b][1,4]oxazin-3-yl)methyl)piperidine-1-carboxylate] are 0.063 µM and 0.036 µM.
With `CC1(C)CCC(CN2CCN(c3ccc(C(=O)NS(=O)(=O)c4cc5c(c([N+](=O)[O-])c4)N[C@@H](CC#N)CO5)c(Oc4cnc5[nH]ccc5c4)c3)CC2)=C(c2ccc(Cl)cc2)C1` [Example 2-115, (S)-2-((1H-pyrrolo[2,3-b]pyridin-5-yl)oxy)-4-(4-((4′-chloro-5,5-dimethyl-3,4,5,6-tetra-hydro-[1,1′-biphenyl]-2-yl)methyl)piperazin-1-yl)-N-((3-(cyanomethyl)-5-nitro-3,4-di-hydro-2H-benzo[b][1,4]oxazin-7-yl)sulfonyl-yl)benzamide], the IC50 is 0.038 µM in the assay with DOHH2 cells and 0.006 µM with RS4;11 cells.
`CC1(C)CCC(CN2CCN(c3ccc(C(=O)NS(=O)(=O)c4cc5c(c([N+](=O)[O-])c4)N[C@@H](Cc4ccc(F)cc4)CO5)c(Oc4cnc5[nH]ccc5c4)c3)CC2)=C(c2ccc(Cl)cc2)C1` [Example 2-190, (S)-2-((1H-pyrrolo[2,3-b]pyridin-5-yl)oxy)-4-(4-((4′-chloro-5,5-dimethyl-3,4,5,6-tetra-hydro-[1,1′-biphenyl]-2-yl)methyl)piperazin-1-yl)-N-((3-(4-fluorobenzyl)-5-nitro-3,4-dihydro-2H-benzo[b][1,4]oxazin-7-yl)sulfo-nyl)benzamide]: the half-inhibitory concentration (IC50) is 0.025 µM in the assay on DOHH2 cells (Homo sapiens, DOHH-2, 120 h) and 0.008 µM in the assay with RS4;11 cells (Homo sapiens, RS4-11, 72 h).
On to `CC1(C)CCC(CN2CCN(c3ccc(C(=O)NS(=O)(=O)c4cc5c(c([N+](=O)[O-])c4)N[C@@H](CCS(C)(=O)=O)CS5)c(Oc4cnc5[nH]ccc5c4)c3)CC2)=C(c2ccc(Cl)cc2)C1` [Example 3-18, (S)-2-((1H-pyrrolo[2,3-b]pyridin-5-yl)oxy)-4-(4-((4′-chloro-5,5-dimethyl-3,4,5,6-tetra-hydro-[1,1′-biphenyl]-2-yl)methyl)piperazin-1-yl)-N-((3-(2-(methylsulfonyl)ethyl)-5-nitro-3,4-dihydro-2H-benzo[b][1,4]thiazin-7-yl)sulfonyl)benzamide], for which the IC50 with DOHH2 cells (Homo sapiens, DOHH-2, 120 h) turned out to be 0.054 µM; in the assay on RS4;11 cells (Homo sapiens, RS4-11, 72 h), 0.02 µM.
Taken in the same sequence, the figures for `CC(C)OC[C@@H]1COc2cc(S(=O)(=O)NC(=O)c3ccc(N4CCN(CC5=C(c6ccc(Cl)cc6)CC(C)(C)CC5)CC4)cc3Oc3cnc4[nH]ccc4c3)cc([N+](=O)[O-])c2N1` [Example 2-236, (R)-2-((1H-pyrrolo[2,3-b]pyridin-5-yl)oxy)-4-(4-((4′-chloro-5,5-dimethyl-3,4,5,6-tetra-hydro-[1,1′-biphenyl]-2-yl)methyl)piperazin-1-yl)-N-((3-(isopropoxymethyl)-5-nitro-3,4-dihydro-2H-benzo[b][1,4]oxazin-7-yl)sulfonyl)benzamide] were 0.006 µM and 0.001 µM.
Consider `CC1(C)CCC(CN2CCN(c3ccc(C(=O)NS(=O)(=O)c4cc5c(c([N+](=O)[O-])c4)N[C@H](CC4CCN(S(C)(=O)=O)CC4)CO5)c(Oc4cnc5[nH]ccc5c4)c3)CC2)=C(c2ccc(Cl)cc2)C1` [Example 2-204, (R)-2-((1H-pyrrolo[2,3-b]pyridin-5-yl)oxy)-4-(4-((4′-chloro-5,5-dimethyl-3,4,5,6-tetra-hydro-[1,1′-biphenyl]-2-yl)methyl)piperazin-1-yl)-N-((3-((1-(methylsulfonyl)piperidin-4-yl)methyl)-5-nitro-3,4-dihydro-2H-benzo [b][1,4]oxazin-7-yl)sulfonyl)benzamide], for which the IC50 turned out to be 0.017 µM with DOHH2 cells (Homo sapiens, DOHH-2, 120 h) and 0.026 µM in the assay on RS4;11 cells (Homo sapiens, RS4-11, 72 h).
